In US20130203649A1, “INHIBITORS OF TLR SIGNALING BY TARGETING TIR DOMAIN INTERFACES” (UNIVERSITY OF MARYLAND, BALTIMORE, priority 2012, published 2013):
No end group written: not given here.

How the values were obtained:
TLR4 = experiment: LPS-induced STAT1-Y701 phosphorylation in macrophages (immunoblotting); type: cell-based, mouse; conditions: 2 h after LPS
TLR4/TRAM = target: T1, TLR4/TRAM (Mus musculus, UniProt Q9QUK6); experiment: TLR4/TRAM coimmunoprecipitation in transfected HEK293T cells; type: cell-based; conditions: 20 μM peptide, 1 h
T1 construct: TLR4-Cer expression vector was described earlier (1); expressed in transfected cells; host or cells: HEK293T
T1 sequence (Q9QUK6 26-835): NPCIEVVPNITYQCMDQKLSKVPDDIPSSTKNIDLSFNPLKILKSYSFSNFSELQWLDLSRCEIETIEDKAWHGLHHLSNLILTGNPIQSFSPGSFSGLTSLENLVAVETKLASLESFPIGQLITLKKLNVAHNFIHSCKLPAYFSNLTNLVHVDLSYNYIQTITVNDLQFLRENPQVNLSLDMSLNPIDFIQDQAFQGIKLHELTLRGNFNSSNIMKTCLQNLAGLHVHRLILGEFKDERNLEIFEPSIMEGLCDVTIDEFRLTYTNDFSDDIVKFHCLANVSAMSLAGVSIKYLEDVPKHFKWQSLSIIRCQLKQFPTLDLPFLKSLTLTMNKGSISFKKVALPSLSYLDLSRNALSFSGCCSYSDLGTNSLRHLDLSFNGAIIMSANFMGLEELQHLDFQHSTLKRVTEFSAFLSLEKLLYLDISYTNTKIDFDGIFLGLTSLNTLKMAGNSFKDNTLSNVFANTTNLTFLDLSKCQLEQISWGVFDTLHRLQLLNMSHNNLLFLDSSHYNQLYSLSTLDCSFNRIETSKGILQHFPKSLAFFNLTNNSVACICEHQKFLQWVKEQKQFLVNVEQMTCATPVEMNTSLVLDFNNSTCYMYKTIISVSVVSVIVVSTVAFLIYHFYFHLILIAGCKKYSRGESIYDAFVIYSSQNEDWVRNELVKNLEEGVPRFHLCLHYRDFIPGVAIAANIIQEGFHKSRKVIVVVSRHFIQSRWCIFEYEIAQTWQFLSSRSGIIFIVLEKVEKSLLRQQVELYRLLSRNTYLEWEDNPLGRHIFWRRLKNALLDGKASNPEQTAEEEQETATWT
Description: FIG. 9. TM4, TM6, and TR6 block adapter recruitment to TLR4. (A) A total of 6×10^5 HEK293T cells was transfected with 1 μg pcDNA3.1-mTLR4-Cer and pEF-BOS-mTRAM-HA. Twenty-four hours posttransfection, the cells were treated with 20 μM of each peptide for 1 h. Cell lysates were immunoprecipitated with anti-GFP Ab and blotted with anti-HA-HRP. (B) A total of 2×10^6 mouse peritoneal macrophages was pretreated with 20 μM of each peptide for 30 min prior to stimulation with 100 ng/ml LPS. Cell extracts were obtained 30 min after LPS treatment, immunoprecipitated with goat anti-TLR4 Ab, and blotted with rabbit anti-MyD88 or anti-TLR4 Ab. Data are representative of three independent experiments.
HEK293T cells were transfected with indicated plasmids using Superfect Transfection Reagent (Qiagen). […] Protein was quantified using Bio-Rad protein quantification kit. Equal amount of protein was loaded and analyzed by 10% SDS-PAGE and immunoblotting. The cell extracts containing equal amount of protein were incubated with 1 μg Ab for 2 h, followed by 4-h incubation with 25 μl protein G agarose beads (Roche); the beads were then washed four times with lysis buffer, boiled in […] sample loading buffer, and analyzed by immunoblotting. […]

C57BL/6J mice = experiment: Survival after lethal LPS challenge in C57BL/6J mice; type: in vivo, mouse; conditions: LPS 17.5 μg/g i.p.; peptide 10 nmol/g i.p. 1 h before
Description: FIG. 10. […] (A-E) C57BL/6J mice were injected i.p. with purified Escherichia coli K235 LPS (1 μg/g) or PBS. Peptides (10 nmol/g of animal weight) were injected i.p. (A, B, D, E) or i.v. (C) 1 h before (A, B, and C) or 30 min after (D, E) i.p. injection of LPS. Data in panels A and D show plasma IL-6 and TNF-α levels measured 2 h after LPS challenge. Peptide TM8/9 was used as a non-inhibitory control peptide. Data represent the means±s.e.m. for 6-12 blood samples obtained in at least three independent experiments. *p<0.01. (F, G) C57BL/6J mice were challenged i.p. with a lethal LPS dose (17.5 μg/g). Peptides (10 nmol/g) were injected i.p. 1 h before LPS challenge. […] The statistical significance of changes in mortality and survival time was determined by the Mantel Cox log-rank test using GraphPad Prism software (Version 5.04). *p<0.01.
Eight-week-old C57BL/6J mice were injected with 1 or 17.5 μg/g animal weight of E. coli K235 LPS i.p. Peptides reconstituted in PBS were administered i.p. or i.v. Control groups received equivalent volume of solvent (PBS). The blood samples were collected 1, 2, 4, and 8 h, or 2, 8, and 24 h after LPS challenge. The plasma samples were obtained and kept frozen until TNF-α and IL-6 were measured by ELISA. Survival of animals was monitored every 6-16 h after LPS challenge. All animal experiments were carried out with institutional approval.
We next studied whether inhibitory peptides protect mice from a lethal LPS challenge. TR6, a previously described inhibitory peptide derived from the third helical region of TRAP (30), was also included in this study as an additional control. C57BL/6J mice were injected i.p. with 17.5 μg/g LPS. This dose induced 100% mortality in the control group (FIG. 10F). […] The peptide-treated survivors appeared active and healthy at the time the experiments were terminated, 7 d after injection of LPS.

Sequence | LPS-induced STAT1-Y701 phosphorylation (TLR4) | TLR4/TRAM coimmunoprecipitation (TLR4/TRAM) | Survival after lethal LPS challenge (C57BL/6J mice)
RQIKIWFQNRRMKWKKCLQDAIDHSGFT [TF5] | inhibit | – | –
RQIKIWFQNRRMKWKKPGFLRDPWCKYQML [TR6] | – | inhibited TLR4/TRAM association, although less efficiently than TM6 | improved animal survival comparably to TM6
